Assay results as given in patent US7476650B2, “Enzyme inhibition” (Yale University, priority 1999, dated 2009).
Read-outs that look alike come from different tables or passages of the source. Where a SMILES comes first, the peptide text is derived from it. The star is where a group is joined. Cbz = O=C(OCc1ccccc1)*

Columns and labels:
[1] = biological target: T1, purified murine spleen proteasome (Mus musculus, UniProt O35955+P28063+P70195); test: [3H]-epoxomicin binding to purified proteasome; conditions: compared with epoxomicin-biotin
T1 construct: from tissue; host or cells: murine spleen
T1 sequence (P28063 73-276): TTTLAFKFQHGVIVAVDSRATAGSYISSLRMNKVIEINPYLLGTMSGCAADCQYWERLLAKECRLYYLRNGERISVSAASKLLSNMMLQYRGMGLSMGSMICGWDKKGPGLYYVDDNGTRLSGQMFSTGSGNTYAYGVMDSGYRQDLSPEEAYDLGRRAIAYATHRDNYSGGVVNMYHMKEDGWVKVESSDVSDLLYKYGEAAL
T1 sequence (O35955 40-273): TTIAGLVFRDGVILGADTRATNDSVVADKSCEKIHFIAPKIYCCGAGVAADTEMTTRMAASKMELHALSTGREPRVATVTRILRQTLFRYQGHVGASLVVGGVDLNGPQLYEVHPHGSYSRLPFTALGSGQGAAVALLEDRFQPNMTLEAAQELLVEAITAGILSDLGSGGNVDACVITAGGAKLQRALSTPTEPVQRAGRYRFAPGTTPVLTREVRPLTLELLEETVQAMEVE
T1 sequence (P70195 44-277): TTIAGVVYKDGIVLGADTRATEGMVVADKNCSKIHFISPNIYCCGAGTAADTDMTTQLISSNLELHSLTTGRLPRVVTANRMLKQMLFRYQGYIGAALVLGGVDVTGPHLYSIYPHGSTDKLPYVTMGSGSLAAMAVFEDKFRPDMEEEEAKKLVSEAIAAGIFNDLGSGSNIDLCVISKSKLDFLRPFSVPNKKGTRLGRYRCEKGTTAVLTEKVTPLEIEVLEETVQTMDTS

[2] = biological target: T2, PGPH activity of purified bovine erythrocyte 20S proteasome (Bos taurus, UniProt Q3MHN0); test: Enzyme kinetic assay, PGPH activity (Z-LLE-AMC); type: biochemical; conditions: for kobs/[I] for PGPH activity using Z-LLE-AMC: Examples 9 and 10; for kobs/[I] PGPH: Table 3; for kassoc = kobs/[I] PGPH activity: Table 2, inhibitor concentration range in the line below
T2 construct: from tissue; host or cells: bovine erythrocytes (red blood cells)
Experimental: We investigated the potency of inhibitors of various length. Mono-, di-,tri- and tetraleucine α′,β′-epoxides were ranked by determination of the kobs/[I] values for inhibition of the chymotrypsin-like, trypsin-like, and PGPH activities of purified bovine erythrocyte 20S proteasome. Enzyme kinetic assays were performed as described in Example 2.
(§1) Purified bovine erythrocyte proteasome was enzymatically assayed using a variety of different substrates and inhibitors. In order to evaluate the rates of proteolytic inactivation by inhibitors, kassociation (kobs/[I]) values were determined using fluorogenic peptide substrates over a range of inhibitor concentrations.

[3] = biological target: T3, chymotrypsin-like activity of purified bovine erythrocyte 20S proteasome (Bos taurus, UniProt Q32KL2); test: Enzyme kinetic assay, chymotrypsin-like activity (Suc-LLVY-AMC); type: biochemical; conditions: for kobs/[I] for chymotryptic-like activity using Suc-LLVY-AMC: Examples 9 and 10, in M-1s-1; for kassoc = kobs/[I] (chymotrypsin-like activity inhibition): Table 5; for kobs/[I] Chymotrypsin-like: Table 3; for kassoc = kobs/[I] Chymotrypsin-like activity: Table 2, inhibitor concentration range in the line below
T3 construct: from tissue; host or cells: bovine erythrocytes (red blood cells)
Text: (§2) We investigated the potency of inhibitors of various length. Mono-, di-,tri- and tetraleucine α′,β′-epoxides were ranked by determination of the kobs/[I] values for inhibition of the chymotrypsin-like, trypsin-like, and PGPH activities of purified bovine erythrocyte 20S proteasome.
as §1

[4] = test system: bovine aortic endothelial (BAE) cells; test: BAE cell proliferation ([methyl-3H]-thymidine incorporation); type: cell-based
Experimental: BAE cells were cultured at 7% CO2 and were grown in DMEM supplemented with 10% FBS, 1% penicillin/streptomycin (GIBCO), and 1 mM sodium pyruvate.
Approximately 1000 BAE cells were plated into each well of a 96-well culture plate. After an overnight incubation, different concentrations of proteasome inhibitors were added and incubation was continued for another five days. […] Subsequently, 74 kBq of [methyl-^3H]-thymidine was added to each well of the plate and the plate was incubated for another additional 4 hours. Cells were harvested using a Skatron Cell Harvester and incorporated radioactivity was quantified using liquid scintillation. Proliferation of BAE cells was assayed in triplicate in the presence of different concentrations of peptide epoxides.
Perturbation of the proteasome activity can result in inhibition of cell growth, and can further lead to cell death at elevated concentration of the proteasome inhibitors. This provides an excellent cell-based assay to assess the importance of each catalytic activity of the 20S proteasome in degradation of proteins involved in cell growth. We measured inhibition of proliferation of bovine aortic endothelial (BAE) cells with our α′,β′-epoxyketone-based inhibitors with varying degree of specificity for the PGPH activity.

[5] = test system: mice, DNFB applied to the ear; test: DNFB ear inflammation (irritant sensitivity response); type: in vivo; conditions: single dose one hour before DNFB, 24 hours
Experimental: Ear thickness was measured at 0 and 24 hours after DNFB application.

[6] = biological target: T4, trypsin-like activity of purified bovine erythrocyte 20S proteasome (Bos taurus, UniProt Q2TBP0); test: Enzyme kinetic assay, trypsin-like activity (Boc-LRR-AMC); type: biochemical; conditions: for kobs/[I] for tryptic-like activity using Boc-LRR-AMC: Examples 9 and 10; for kassoc = kobs/[I] Trypsin-like activity: Table 2, inhibitor concentration range in the line below; for inhibition of the trypsin-like activity of the proteasome: in words
T4 construct: from tissue; host or cells: bovine erythrocytes (red blood cells)
Text: as §2, §1

[7] = test system: p53 protein levels in HUVECs; test: α-p53 immunoblot of treated HUVECs; type: cell-based; conditions: 5 μM
Experimental: The tumor suppressor p53 is a known target of the proteasome.
(§3) The control experiment (Crtl) was carried out with vehicle only.

cathepsin B = cathepsin B (Homo sapiens, UniProt P07858); test: Cathepsin B inhibition assay
[8] = test system: ubiquitinated proteins in Hela cells; test: α-ubiquitin immunoblot of treated Hela cells; type: cell-based; conditions: epoxomicin 10 μM, 2 hours
Experimental: as §3

[9] = Table 6, PGPH-directed inhibitors

## [3H]C([3H])([3H])C(=O)N(C)[C@H](C(=O)N[C@H](C(=O)N[C@H](C(=O)N[C@@H](CC(C)C)C(=O)[C@@]1(C)CO1)[C@@H](C)O)[C@@H](C)CC)[C@@H](C)CC [[^3H] epoxomicin]
[1]
  protein binding pattern: same protein binding pattern observed with epoxomicin-biotin

## CC(=O)N[C@@H](CCc1ccccc1)C(=O)N[C@@H](CC(C)C)C(=O)N[C@@H](Cc1ccccc1)C(=O)N[C@@H](CC(C)C)C(=O)[C@@]1(C)CO1 [compound 16]
[2]; pH 8, Table 4, inhibitor concentration range in parentheses, read-out: kassoc = kobs/[I] PGPH activity
  kinact/KI: 21 M⁻¹ s⁻¹
[3]; pH 8, read-out: kobs/[I] for chymotryptic-like activity using Suc-LLVY-AMC
  kinact/KI: 183000 M⁻¹ s⁻¹
[3]; pH 8, Table 4, inhibitor concentration range in parentheses, read-out: kassoc = kobs/[I] Chymotrypsin-like activity
  kinact/KI: 166000 M⁻¹ s⁻¹
[4]; Bos taurus, 120 h, Table 5, five days incubation
  IC50: 20 nM
[5]; high dose 2.0 mg/kg (3.6 μmol/kg)
  inhibition of ear inflammation / ear swelling over vehicle-treated controls: 12 fold
[5]; low dose 0.32 mg/kg (0.58 μmol/kg)
  inhibition of ear inflammation / ear swelling over vehicle-treated controls: reducing ear swelling by the same amount as epoxomicin
[6]; pH 8, Table 4, inhibitor concentration range in parentheses, read-out: kassoc = kobs/[I] Trypsin-like activity
  kinact/KI: 7.1 M⁻¹ s⁻¹

## CC(=O)N[C@@H](CC(C)C)C(=O)N[C@@H](Cc1ccccc1)C(=O)N[C@@H](CC(C)C)C(=O)N[C@@H](CC(C)C)C(=O)[C@@]1(C)CO1 [Ac-LFLL-epoxide]
[2]
  kobs/[I] for PGPH activity using Z-LLE-AMC: not measurable
[3]
  kobs/[I] for chymotryptic-like activity using Suc-LLVY-AMC: 8,500
  kassoc = kobs/[I] (chymotrypsin-like activity inhibition): 8500 M⁻¹ s⁻¹
[4]; Table 5, five days incubation
  IC50: 16 nM
[6]
  kobs/[I] for tryptic-like activity using Boc-LRR-AMC: not measurable

## CC(=O)N[C@@H](CSC(=O)[C@]1([C@@H](O)C(C)C)NC(=O)[C@H](C)[C@@H]1O)C(=O)O [lactacystin]
[7]
  increase of p53 levels over untreated cells: 10 fold

## CC(C)C[C@H](NC(=O)[C@H](Cc1ccccc1)NC(=O)[C@@H]1CCCN1C(=O)c1cnccn1)C(=O)C1(C)CO1 (stereo partly drawn) [Pyrazinecarbonyl-PFL-Ex]
[2]
  kobs/[I] PGPH: 23 ± 3 M⁻¹ s⁻¹
[3]
  kobs/[I] Chymotrypsin-like: 520 ± 40 M⁻¹ s⁻¹
[4]; [9]
  IC50: 400 nM
[6]; Table 3
  kobs/[I] Trypsin-like: 3.7 ± 1.1 M⁻¹ s⁻¹

## CC(C)C[C@@H](/C=C/S(C)(=O)=O)NC(=O)[C@H](CC(C)C)NC(=O)[C@H](CC(C)C)NC(=O)Cc1cc(I)c(O)c([N+](=O)[O-])c1 [NLVS, reference compound]
Cathepsin B; at 10 μM
  inhibition of cathepsin B enzymatic activity: significantly inhibited
[2]
  kassoc = kobs/[I] PGPH activity: 6.4 ± 2.3 M⁻¹ s⁻¹
[3]
  kassoc = kobs/[I] Chymotrypsin-like activity: 6790 ± 919 M⁻¹ s⁻¹
[6]
  kassoc = kobs/[I] Trypsin-like activity: 5.3 ± 2.8 M⁻¹ s⁻¹

## CC(C)C[C@@H](C=O)NC(=O)[C@H](CC(C)C)NC(=O)[C@H](CC(C)C)NC(=O)OCc1ccccc1 [Z-LLL-H] (Cbz-Leu-Leu-Leu-aldehyde)
[8]
  accumulation of ubiquitinated proteins (anti-ubiquitin antibody): upper molecular weight bands were also observed

## CC(=O)NCC(=O)N1CCC[C@H]1C(=O)N[C@@H](Cc1ccccc1)C(=O)N[C@@H](CC(C)C)C(=O)C1(C)CO1 (stereo partly drawn) [Ac-GPFL-Ex]
[2]; PGPH vs chymotrypsin-like
  selectivity: fold higher kobs/[I] for inhibition of the PGPH activity than the chymotrypsin-like activity: 35 fold
[2]
  kobs/[I] PGPH: 190 ± 10 M⁻¹ s⁻¹
[3]
  kobs/[I] Chymotrypsin-like: 5 ± 1 M⁻¹ s⁻¹
[4]; [9]
  IC50: 58000 nM
[6]
  inhibition of the trypsin-like activity of the proteasome: no inhibition

## CC(=O)N[C@@H](C)C(=O)N[C@@H](CC(C)C)C(=O)N[C@@H](CC(C)C)C(=O)N[C@@H](CC(C)C)C(=O)[C@@]1(C)CO1 [Ac-ALLL-epoxide]
[2]
  kobs/[I] for PGPH activity using Z-LLE-AMC: 220
[3]
  kobs/[I] for chymotryptic-like activity using Suc-LLVY-AMC: 5,300
  kassoc = kobs/[I] (chymotrypsin-like activity inhibition): 5300 M⁻¹ s⁻¹
[4]; Table 5, five days incubation
  IC50: 83 nM
[6]
  kobs/[I] for tryptic-like activity using Boc-LRR-AMC: 3.8 M⁻¹ s⁻¹

## CC(=O)N[C@@H](CC(C)C)C(=O)N[C@@H](CC(C)C)C(=O)N[C@@H](Cc1ccccc1)C(=O)N[C@@H](CC(C)C)C(=O)[C@@]1(C)CO1 [Ac-LLFL-epoxide]
[2]
  kobs/[I] for PGPH activity using Z-LLE-AMC: not measurable
[3]
  kobs/[I] for chymotryptic-like activity using Suc-LLVY-AMC: 54,000
  kassoc = kobs/[I] (chymotrypsin-like activity inhibition): 54,000 M^−1 s^−1
[4]; Table 5, five days incubation
  IC50: 7 nM
[6]
  kobs/[I] for tryptic-like activity using Boc-LRR-AMC: not measurable

## CC(C)CCCCC(=O)N1CCC[C@H]1C(=O)N[C@@H](Cc1ccccc1)C(=O)N[C@@H](CC(C)C)C(=O)[C@@]1(C)CO1 [Isooctanioc-PFL-Ex]
[2]
  kobs/[I] PGPH: 194 ± 4 M⁻¹ s⁻¹
[2]; in words, data not shown for Glu compounds
  selectivity for the PGPH activity: no selectivity
[3]
  kobs/[I] Chymotrypsin-like: 190 ± 60 M⁻¹ s⁻¹
[4]; [9]
  IC50: 600 nM
[6]
  inhibition of the trypsin-like activity of the proteasome: no inhibition

## CC(=O)N[C@@H](CC(C)C)C(=O)N[C@@H](CC(C)C)C(=O)N[C@@H](C)C(=O)N[C@@H](CC(C)C)C(=O)[C@@]1(C)CO1 [Ac-LLAL-epoxide]
[2]
  kobs/[I] for PGPH activity using Z-LLE-AMC: 20
[3]
  kobs/[I] for chymotryptic-like activity using Suc-LLVY-AMC: 16,000
  kassoc = kobs/[I] (chymotrypsin-like activity inhibition): 16,000 M^−1 s^−1
[4]; Table 5, five days incubation
  IC50: 34 nM
[6]
  kobs/[I] for tryptic-like activity using Boc-LRR-AMC: 4.1 M⁻¹ s⁻¹

## CC(C)[C@H](O)[C@@]12NC(=O)[C@H](C)[C@@H]1OC2=O [clasto-lactacystin β lactone, clasto-lactacystin β-lactone, reference compound]
Cathepsin B; at 50 μM
  inhibition of cathepsin B enzymatic activity: significantly inhibited
[2]
  kassoc = kobs/[I] PGPH activity: 37 ± 4.7 M⁻¹ s⁻¹
[3]
  kassoc = kobs/[I] Chymotrypsin-like activity: 8530 ± 280 M⁻¹ s⁻¹
[6]
  kassoc = kobs/[I] Trypsin-like activity: 253 ± 41 M⁻¹ s⁻¹

## CC(=O)N[C@@H](CC(C)C)C(=O)N[C@@H](C)C(=O)N[C@@H](CC(C)C)C(=O)N[C@@H](CC(C)C)C(=O)[C@@]1(C)CO1 [Ac-LALL-epoxide]
[2]
  kobs/[I] for PGPH activity using Z-LLE-AMC: 130
[3]
  kobs/[I] for chymotryptic-like activity using Suc-LLVY-AMC: 1,300
  kassoc = kobs/[I] (chymotrypsin-like activity inhibition): 1300 M⁻¹ s⁻¹
[4]; Table 5, five days incubation
  IC50: 700 nM
[6]
  kobs/[I] for tryptic-like activity using Boc-LRR-AMC: 2 M⁻¹ s⁻¹
